# Reference: patent US20050074744A1, “Assays for evaluating anti-osteoarthritic activity” (priority 2003, published 2005)
# Experiments:
# collagenase 1 RNA = test: Quantitative real-time RT-PCR of collagenase 1 RNA in IL-1β-treated ACGs; type: cell-based, human; conditions: ACG, 24 hours
# Method: (§1) ACGs were constructed from the human chondrocyte strain Cc 05912 1°, which was isolated and propagated in Dubelcco's-Modified Eagle's Medium with. 10% fetal bovine serum (DMEM/10% FBS). After propagation, the cells were used to assemble ACGs on type II collagen coated Millipore Millicell-CM filters at a density of 2 million cells/cm^2, using the procedure described in U.S. Pat. No. 5,326,357. The ACGs were grown in defined ACG media (DMEM/2×ITS×(Invitrogen # 51500-056), 2% Human Serum Albumin) supplemented with 5 ng/ml TGF-β2 and 100 μg/ml ascorbic acid. After three weeks in culture, the levels of aggrecan and collagen type II expression in the ACGs peaked and leveled off. […]
# (§2) After incubation with IL-1β for 24 hours, a group of the ACGs from Example 2 were harvested for quantitative real-time RT-PCR by snap freezing them in LN2. For quantitative real-time RT-PCR total RNA was isolated from the ACGs with TRIzol™ Reagent (Invitrogen # 15596-026) with subsequent cleanup using the Qiagen Rneasy™ Mini Kit (Qiagen # 74104). Contaminating DNA was removed from total RNA samples using the Ambion DNA-free kit (Ambion # 1906). cDNA synthesis was performed on 1 […] of each sample using the Amersham Ready-To-Go You-Prime First-Strand Beads™ (Amersham # 27-9264-01) primed with oligo dT. Reverse transcriptase activity was measured using the PicoGreen™ dsDNA quantitation Kit (Molecular Probes # P-7589). […]
# collagenase 3 RNA = test: Quantitative real-time RT-PCR of collagenase 3 RNA in IL-1β-treated ACGs; type: cell-based, human; conditions: ACG, 24 hours
# Method: as §1, §2
# stromelysin RNA = test: Quantitative real-time RT-PCR of stromelysin RNA in IL-1β-treated ACGs; type: cell-based, human; conditions: ACG, 24 hours
# Method: as §1, §2
# aggrecanase 1 RNA = test: Quantitative real-time RT-PCR of aggrecanase 1 RNA in IL-1β-treated ACGs; type: cell-based, human; conditions: ACG, 24 hours
# Method: as §1, §2
# aggrecanase 2 RNA = test: Quantitative real-time RT-PCR of aggrecanase 2 RNA in IL-1β-treated ACGs; type: cell-based, human; conditions: ACG, 24 hours
# Method: as §1, §2
# [1] = system: articular cartilage grafts (ACGs); test: Histological assessment (toluidine blue) of proteoglycan and collagen levels in ACGs; type: cell-based, human; conditions: ACG; for presence or loss of proteoglycans, toluidine blue stain: 24 hours
# Method: ACGs were constructed from the human chondrocyte strain Cc 05912 1°, which was isolated and propagated in Dubelcco's-Modified Eagle's Medium with. 10% fetal bovine serum (DMEM/10% FBS). After propagation, the cells were used to assemble ACGs on type II collagen coated Millipore Millicell-CM filters at a density of 2 million cells/cm^2, using the procedure described in U.S. Pat. No. 5,326,357. The ACGs were grown in defined ACG media (DMEM/2×ITS×(Invitrogen # 51500-056), 2% Human Serum Albumin) supplemented with 5 ng/ml TGF-β2 and 100 μg/ml ascorbic acid. After three weeks in culture, the levels of aggrecan and collagen type II expression in the ACGs peaked and leveled off.
# After three weeks, the IL-1β (R&D Systems # 201-LB) and DBH incubations began. All of the preincubations and subsequent incubations were performed in DMEM. First all of the ACGs were washed twice with DMEM. Sample 1 ACGs were harvested for histology and gene expression analysis at the onset of the experiment. Next, 2 hour preincubations were performed on four groups, in triplicate for both histology and gene expression analysis. Sample 2 ACGs received 250 μl of DMEM to the inside and outside of the ACG. Sample 3 ACGs received the same. Sample 4 ACGs received 5 μm DBH in the same volumes as the other groups to the inside and outside of the Millicell filter containing the ACGs. Sample 5 ACGs received DMSO in the same volume as the DBH group as a vehicle control. The ACGs were then incubated for 2 hours. After the 2 hour preincubation with DBH, IL-1β incubation was added. Sample 2 received another 250 μl of DMEM in addition to the 250 μl that was added at the preincubation step. Sample 3 received 250 μl, inside and out, of DMEM with IL-1β at a final concentration of 2 ng/ml. Sample 4 also received IL-1β with the addition of more DBH to compensate for the volume change of DMEM to keep the concentration of 5 μm. Sample 5 also received IL-1β with an adjustment of the DMSO levels to compensate for the volume change of the DMEM.
# After incubation with-lL-1β for 24 hours, a group of the ACGs from Example 2 were fixed in 10% neutral buffered formalin and embedded in paraffin. Sections were cut and stained with toluidine blue to assess the presence or loss of proteoglycans in the ACGs.
# [2] = system: chondrocyte monolayer cultures; conditions: U.S. Pat. No. 5,591,740; cited from earlier work
# [3] = system: Hartley guinea pig model of osteoarthritis; conditions: U.S. Pat. No. 5,591,740; cited from earlier work
# [4] = 5 μm DBH (2 hour preincubation) + IL-1β 2 ng/ml
"% reduction of IL-1β-induced gene expression with DBH, collagenase 1 (collagenase 1 RNA; [4])","% reduction of IL-1β-induced gene expression with DBH, collagenase 3 (collagenase 3 RNA; [4])","% reduction of IL-1β-induced gene expression with DBH, aggrecanase 1 (aggrecanase 1 RNA; [4])","% reduction of IL-1β-induced gene expression with DBH, aggrecanase 2 (aggrecanase 2 RNA; [4])",Compound,"% reduction of IL-1β-induced gene expression with DBH, stromelysin (stromelysin RNA; [4])","presence or loss of proteoglycans, toluidine blue stain ([1]; IL-1β 2 ng/ml and 5 μm DBH)","loss of proteoglycans and collagen, histological staining ([1]; IL-1β and DBH)",IL-1 induced degradation of matrix proteins [2],preexisting cartilage damage [3],"Fold Induction by IL-1β, collagenase 1 (collagenase 1 RNA; IL-1β 2 ng/ml, RNA by Q RT-PCR)","Fold Induction by IL-1β, collagenase 3 (collagenase 3 RNA; IL-1β 2 ng/ml, RNA by Q RT-PCR)","Fold Induction by IL-1β, stromelysin (stromelysin RNA; IL-1β 2 ng/ml, RNA by Q RT-PCR)","Fold Induction by IL-1β, aggrecanase 1 (aggrecanase 1 RNA; IL-1β 2 ng/ml, RNA by Q RT-PCR)","Fold Induction by IL-1β, aggrecanase 2 (aggrecanase 2 RNA; IL-1β 2 ng/ml, RNA by Q RT-PCR)","presence or loss of proteoglycans, toluidine blue stain ([1]; IL-1β 2 ng/ml alone)","loss of proteoglycans and collagen, histological staining ([1]; IL-1β alone)"
66%,55%,65%,56%,"NC1=N/C(=C2/CCNC(=O)c3[nH]ccc32)C(=O)N1 [DBH, debromohymenialdesine]",57%,decreased loss of proteoglycans,reduces the loss of proteoglycans and collagen,inhibits IL-1 induced degradation of matrix proteins,reduces preexisting cartilage damage,–,–,–,–,–,–,–
–,–,–,–,IL-1β: inflammatory cytokine (R&D Systems # 201-LB) used to induce osteoarthritic cartilage damage in ACGs,–,–,–,–,–,183,17,168,4,4,marked loss of proteoglycans,causes the loss of proteoglycans and collagen
